Values after ≈ are worked out from the molar mass of the structure shown.
Columns and labels:
[1] = test system: E. coli clinical isolates; assay: MIC on panel of E. coli clinical isolates; type: cell-based
[2] = biological target: T1, NfsA (Escherichia coli, UniProt P17117); assay: Nitroreductase activity assay, NfsA; type: biochemical, E. coli; conditions: 20 μM compound, 40 μM NADPH, 10 nM NfsA; slope of initial velocity
T1 construct: His-tag; made in house; host or cells: E. coli BL21(DE3), pET28a (pET-nfsA)
Experimental: Enzyme reducing each of the substrates are measured by monitoring the concomitant oxidation of NADPH by NfsA and NADH by NfsB in a fluorescence based assay. The reduction in fluorescence due to the NADH oxidation (excitation 350 nm, emission 460 nm) and NADPH oxidation (excitation 340 nm, emission 485 nm) is recorded using a TECAN Infinite M200Pro spectrophotometer, in half area solid black microtiter plates. This change in fluorescence directly corelates to the reduction of the nitro-compounds in the reaction. The NfsA assays is performed by initiating the reactions with 40 μM NADPH and 10 nM NfsA in 50 mM Tris-HCl (pH 7.4), 5 mM EDTA against 20 μM substrate (5 μl of compounds/substrate dissolved in 100% DMSO) in a total reaction volume of 100 μl at 25 °C. Similarly, the NfsB assay is also performed by initiating the reactions with 40 μM NADH and 70 nM NfsB in 50 mM Tris-HCl (pH 7.4), 5 mM EDTA against 20 μM substrate in a total reaction volume of 100 μl. […] All reactions are performed in replicates of two or more and the fluorescence measurements are made at 10 second intervals for 5–10 minutes.
Low solubility of the compounds/substrates under the NfsA and NfsB assay conditions precluded determination of their Km. […] The relative fluorescence units (RFU) obtained due to NADPH (excitation 340 nm, emission 485 nm) or NADH (excitation 350 nm, emission 460 nm) oxidation of the first 90 sec reaction is used to compute the slopes using linear regression analysis on GraphPad Prism. Appropriate blank reactions are included to account for background fluorescence/quenching from each of the components such as DMSO, the compound itself and auto-oxidation of NADPH or NADH. Activity of NfsB with a known substrate such as nitrofurantoin is used as a benchmark to plot the relative activities with all the test compounds.

[3] = test system: E. coli ∆nfsA; assay: microbe, parasite or virus in culture; type: cell-based; conditions: Escherichia coli, read-out: MIC ∆nfsA
Experimental: (§1) To assess the biological relevance of the interacting protein and establish the link between nitroreductases to the antibacterial activity of NTC compounds, single (ΔnfsA or ΔnfsB) and double knockouts (ΔnfsA & ΔnfsB) of nitroreductases were generated by phage transduction using strains from the Keio collection.
(§2) The inoculum used for all the experiments is derived from a single seed lot that is maintained as glycerol stocks at −80 °C and are sub cultured on LB plate for isolated colonies. Single colony of each strain is grown in M9 medium. All test compound stocks and dilutions are prepared in DMSO. Serial two-fold dilutions of compounds are prepared separately, with the concentrations ranging from 2 mg/mL to 0.015 mg/mL. To 150 µl (3–7 × 10^5 CFU/ml) of bacterial culture in 96 well microtitre plates, 3 μL compound from each of the dilutions is added to respective wells to obtain final concentrations ranging from 40 µg/mL to 0.3 µg/mL of the test compounds. Media control, culture control and appropriate reference drug controls are included. […] Growth is monitored by checking absorbance at 600 nm (A600). […] The samples from MIC and above concentrations are plated for MBC (Minimum Bactericidal Concentration). The samples are diluted 1:10 and plated on LB agar plates. […] The killing kinetics is determined by enumerating survivors at various time points following compound exposure. E. coli cells (~10^7 CFU/ml; A600 of 0.1) are treated with various concentrations (40 µg/mL to 0.3 µg/mL) of compounds in a 96-well microtitre plate. At various time intervals (0 to 8 h), 30 μl volumes of treated cultures are serially diluted and plated on LB agar plates. […] Data is expressed as the log10 CFU for each drug treatment.

[4] = test system: E. coli ∆nfsA + ∆nfsB; assay: microbe, parasite or virus in culture; type: cell-based; conditions: for MIC: Escherichia coli, read-out: MIC ∆nfsA + ∆nfsB
Experimental: as §1, §2

T1 sequence (P17117 whole entry): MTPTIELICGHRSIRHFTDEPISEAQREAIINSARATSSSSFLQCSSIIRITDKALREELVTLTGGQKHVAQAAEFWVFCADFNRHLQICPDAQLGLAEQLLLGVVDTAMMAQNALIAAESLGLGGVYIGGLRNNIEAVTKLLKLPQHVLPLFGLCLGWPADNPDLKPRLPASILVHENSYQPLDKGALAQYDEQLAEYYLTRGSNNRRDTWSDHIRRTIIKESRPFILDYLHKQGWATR

SMILES: COc1cc(-c2csc(NC(=O)c3ccc([N+](=O)[O-])s3)n2)ccc1Cl [compound 20, N-(4-(4-chloro-3-methoxyphenyl)thiazol-2-yl)-5-nitrothiophene-2-carboxamide]
- MIC Range ([1]; 75 E.coli clinical isolates): 0.6 to 10 µg/mL
- MIC50 ([1]; Escherichia coli, 75 E.coli clinical isolates, 50% clinical isolates): 5 µg/mL (≈ 12.6 µM)
- MIC90 ([1]; Escherichia coli, 75 E.coli clinical isolates, 90% clinical isolates): 10 µg/mL (≈ 25.3 µM)
- MIC ([1]; strain SEC001): 8 µg/mL (≈ 20.2 µM)
- MIC ([1]; strain SEC002): 8 µg/mL (≈ 20.2 µM)
- MIC ([1]; strain SEC003): 8 µg/mL (≈ 20.2 µM)
- MIC ([1]; strain SEC004): 8 µg/mL (≈ 20.2 µM)
- MIC ([1]; strain SEC005): 8 µg/mL (≈ 20.2 µM)
- MIC ([1]; strain SEC006): 8 µg/mL (≈ 20.2 µM)
- MIC ([1]; strain SEC007): 8 µg/mL (≈ 20.2 µM)
- MIC ([1]; strain SEC008): 8 µg/mL (≈ 20.2 µM)
- MIC ([1]; strain SEC011): 8 µg/mL (≈ 20.2 µM)
- MIC ([1]; strain SEC012): 2 µg/mL (≈ 5.05 µM)
- MIC ([1]; strain SEC013): 8 µg/mL (≈ 20.2 µM)
- MIC ([1]; strain SEC014): 8 µg/mL (≈ 20.2 µM)
- MIC ([1]; strain SEC015): 8 µg/mL (≈ 20.2 µM)
- MIC ([1]; strain SEC016): 2 µg/mL (≈ 5.05 µM)
- MIC ([1]; strain SEC017): 0.06 µg/mL (≈ 0.152 µM)
- MIC ([1]; strain SEC018): 1 µg/mL (≈ 2.53 µM)
- MIC ([1]; strain SEC019): 2 µg/mL (≈ 5.05 µM)
- MIC ([1]; strain SEC020): 8 µg/mL (≈ 20.2 µM)
- MIC ([1]; strain SEC021): 1 µg/mL (≈ 2.53 µM)
- MIC ([1]; strain SEC022): 4 µg/mL (≈ 10.1 µM)
- MIC ([1]; strain SEC023): 8 µg/mL (≈ 20.2 µM)
- MIC ([1]; strain SEC024): 8 µg/mL (≈ 20.2 µM)
- MIC ([1]; strain SEC025): 4 µg/mL (≈ 10.1 µM)
- MIC ([1]; strain SEC026): 8 µg/mL (≈ 20.2 µM)
- MIC ([1]; strain SEC028): 1 µg/mL (≈ 2.53 µM)
- MIC ([1]; strain SEC029): 2 µg/mL (≈ 5.05 µM)
- MIC ([1]; strain SEC031): 1 µg/mL (≈ 2.53 µM)
- MIC ([1]; strain SEC032): 8 µg/mL (≈ 20.2 µM)
- MIC ([1]; strain SEC033): 2 µg/mL (≈ 5.05 µM)
- MIC ([1]; strain SEC034): 8 µg/mL (≈ 20.2 µM)
- MIC ([1]; strain SEC035): 8 µg/mL (≈ 20.2 µM)
- MIC ([1]; strain SEC036): 8 µg/mL (≈ 20.2 µM)
- MIC ([1]; strain SEC037): 1 µg/mL (≈ 2.53 µM)
- MIC ([1]; strain SEC038): 0.25 µg/mL (≈ 0.632 µM)
- MIC ([1]; strain SEC039): 8 µg/mL (≈ 20.2 µM)
- MIC ([1]; strain SEC040): 2 µg/mL (≈ 5.05 µM)
- MIC ([1]; strain SEC041): 8 µg/mL (≈ 20.2 µM)
- MIC ([1]; strain SEC042): 8 µg/mL (≈ 20.2 µM)
- MIC ([1]; strain SEC043): 8 µg/mL (≈ 20.2 µM)
- MIC ([1]; strain SEC044): 8 µg/mL (≈ 20.2 µM)
- MIC ([1]; strain SEC045): 2 µg/mL (≈ 5.05 µM)
- MIC ([1]; strain SEC046): 8 µg/mL (≈ 20.2 µM)
- MIC ([1]; strain SEC047): 0.25 µg/mL (≈ 0.632 µM)
- MIC ([1]; strain SEC048): 8 µg/mL (≈ 20.2 µM)
- MIC ([1]; strain SEC049): 8 µg/mL (≈ 20.2 µM)
- MIC ([1]; strain SEC050): 8 µg/mL (≈ 20.2 µM)
- MIC ([1]; strain SEC051): 8 µg/mL (≈ 20.2 µM)
- MIC ([1]; strain SEC052): 1 µg/mL (≈ 2.53 µM)
- MIC ([1]; strain SEC053): 2 µg/mL (≈ 5.05 µM)
- MIC ([1]; strain SEC054): 2 µg/mL (≈ 5.05 µM)
- MIC ([1]; strain SEC055): 2 µg/mL (≈ 5.05 µM)
- MIC ([1]; strain SEC057): 8 µg/mL (≈ 20.2 µM)
- MIC ([1]; strain SEC058): 8 µg/mL (≈ 20.2 µM)
- MIC ([1]; strain SEC059): 2 µg/mL (≈ 5.05 µM)
- MIC ([1]; strain SEC060): 8 µg/mL (≈ 20.2 µM)
- MIC ([1]; strain SEC061): 4 µg/mL (≈ 10.1 µM)
- MIC ([1]; strain SEC062): 1 µg/mL (≈ 2.53 µM)
- MIC ([1]; strain SEC063): 2 µg/mL (≈ 5.05 µM)
- MIC ([1]; strain SEC064): 8 µg/mL (≈ 20.2 µM)
- MIC ([1]; strain SEC065): 2 µg/mL (≈ 5.05 µM)
- MIC ([1]; strain SEC067): 2 µg/mL (≈ 5.05 µM)
- MIC ([1]; strain SEC068): 8 µg/mL (≈ 20.2 µM)
- MIC ([1]; strain SEC069): 8 µg/mL (≈ 20.2 µM)
- MIC ([1]; strain SEC070): 8 µg/mL (≈ 20.2 µM)
- MIC ([1]; strain SEC071): 1 µg/mL (≈ 2.53 µM)
- MIC ([1]; strain SEC072): 4 µg/mL (≈ 10.1 µM)
- MIC ([1]; strain SEC073): 8 µg/mL (≈ 20.2 µM)
- MIC ([1]; strain SEC074): 8 µg/mL (≈ 20.2 µM)
- MIC ([1]; strain SEC075): 4 µg/mL (≈ 10.1 µM)
- MIC ([1]; strain SEC076): 4 µg/mL (≈ 10.1 µM)
- MIC ([1]; strain SEC077): 2 µg/mL (≈ 5.05 µM)
- MIC ([1]; strain SEC078): 4 µg/mL (≈ 10.1 µM)
- MIC ([1]; strain SEC079): 2 µg/mL (≈ 5.05 µM)
- MIC ([1]; strain SEC080): 4 µg/mL (≈ 10.1 µM)
- NfsA activity (rate of compound conversion) [2]: 0.61 µM/min
- MIC [3]: 0.6 µg/mL (≈ 1.52 µM)
- MIC [4]: > 40 µg/mL
- antibacterial activity in double knockout (in words) ([4]; ΔnfsA and ΔnfsB double knockout strain): completely inactive

SMILES: Cc1sc(NC(=O)c2ccc([N+](=O)[O-])s2)nc1-c1ccccc1 [compound 7, N-(5-Methyl-4-phenylthiazol-2-yl)-5-nitrothiophene-2-carboxamide]
- NfsA activity (rate of compound conversion) [2]: 0.64 µM/min
- MIC [3]: > 40 µg/mL
- MIC [4]: > 40 µg/mL
